Source: US10653698B2, “Methods of improving myocardial performance in Fontan patients using udenafil compositions” (priority 2014, dated 2020)

System: adolescents with single ventricle physiology after Fontan palliation
Assay: Vascular function testing (EndoPAT pulse amplitude tonometry, lnRHI and other EndoPAT indices)
Type: in vivo, human
Conditions: for Natural Log of Reactive Hyperemia Index, Baseline measurement: day 1; for Natural Log of Reactive Hyperemia Index, Follow-up measurement: post-medication, day 5
From the text: Pulse amplitude tonometry (PAT), a FDA-approved method for assessing vascular function, is increasingly being used as an alternative measure of endothelium-dependent dilation in response to reactive hyperemia and flow-mediated dilation (FMD). The PAT device records digital pulse wave amplitude (PWA) using fingertip plethysmography. PWA can be measured continuously during three phases: a quiet baseline period, 5-min forearm occlusion, and reactive hyperemia following cuff release. Unlike FMD, PAT testing is not dependent upon a highly skilled technician and post-test analysis is largely automated. Most importantly, at least one longitudinal study has shown that PAT measures of endothelial function predict CVD events over a 6-year follow-up period. These significant advantages may make PAT testing suitable for clinical practice if prognostic significance and reliability can be verified.
The primary outcome of vascular function was determined according to an endothelial pulse amplitude tonometry (PAT) index as determined by the EndoPAT® device (Itamar Medical, Caesarea, Israel).
Table 16 summarizes the results for the key outcome from the vascular function testing—natural log of Reactive Hyperemia Index (lnRHI) by treatment group. Out of the 30 subjects enrolled in the treatment arms of the trial, 27 subjects had paired measurements with an acceptable quality (with QC score equal to 3 (the best) or 2). The structure of the table is similar to the one for exercise variables.
Table 17 reports change scores only for secondary EndoPAT outcomes (RHI, Framingham RHI etc; top panel) and other EndoPAT indices.

## CCCOc1ccc(S(=O)(=O)NCCC2CCCN2C)cc1-c1nc2c(CCC)nn(C)c2c(=O)[nH]1 (stereo not shown) [udenafil]
37.5 mg daily
  Natural Log of Reactive Hyperemia Index, Difference, FU − BL: 0.03 ± 0.47
  Natural Log of Reactive Hyperemia Index, Baseline measurement: 0.48 ± 0.31
  Natural Log of Reactive Hyperemia Index, Follow-up measurement: 0.51 ± 0.26
37.5 mg daily, N 6
  AUC2max_o: Area under the curve to Max-Occlusion (ratio to baseline), FU − BL: −0.23 ± 2.74
  AUC2max_oc: Area under the curve to Max-Occlusion/Control, FU − BL: −0.93 ± 4.37
  AUCall_o: Area under the curve all-Occlusion (ratio to baseline), FU − BL: −0.01 ± 2.73
  AUCall_oc: Area under the curve all-Occlusion/Control, FU − BL: −1.34 ± 6.42
  Avg2Max_o: average upto max-Occlusion (ratio to baseline), FU − BL: −0.12 ± 0.28
  Avg2Max_oc: average up to max-Occlusion/Control, FU − BL: −0.35 ± 1.01
  Avgall_o: average all-Occlusion (ratio to baseline), FU − BL: 0.02 ± 0.27
  Avgall_oc: average all -Occlusion/Control, FU − BL: −0.10 ± 0.66
  Framingham RHI, FU − BL: −0.00 ± 0.58
  Reactive Hyperemia Index, FU − BL: 0.03 ± 0.84
37.5 mg twice daily
  Natural Log of Reactive Hyperemia Index, Difference, FU − BL: −0.07 ± 0.17
  Natural Log of Reactive Hyperemia Index, Baseline measurement: 0.60 ± 0.30
  Natural Log of Reactive Hyperemia Index, Follow-up measurement: 0.53 ± 0.29
37.5 mg twice daily, N 6
  AUC2max_o: Area under the curve to Max-Occlusion (ratio to baseline), FU − BL: 0.09 ± 1.45
  AUC2max_oc: Area under the curve to Max-Occlusion/Control, FU − BL: −1.19 ± 1.84
  AUCall_o: Area under the curve all-Occlusion (ratio to baseline), FU − BL: −0.69 ± 2.17
  AUCall_oc: Area under the curve all-Occlusion/Control, FU − BL: −1.19 ± 2.00
  Avg2Max_o: average upto max-Occlusion (ratio to baseline), FU − BL: 0.15 ± 0.19
  Avg2Max_oc: average up to max-Occlusion/Control, FU − BL: −0.33 ± 0.26
  Avgall_o: average all-Occlusion (ratio to baseline), FU − BL: −0.08 ± 0.24
  Avgall_oc: average all -Occlusion/Control, FU − BL: −0.13 ± 0.22
  Framingham RHI, FU − BL: −0.17 ± 0.19
  Reactive Hyperemia Index, FU − BL: −0.12 ± 0.30
87.5 mg daily
  Natural Log of Reactive Hyperemia Index, Difference, FU − BL: 0.07 ± 0.22
  Natural Log of Reactive Hyperemia Index, Baseline measurement: 0.41 ± 0.25
  Natural Log of Reactive Hyperemia Index, Follow-up measurement: 0.45 ± 0.31
87.5 mg daily, N 5
  AUC2max_o: Area under the curve to Max-Occlusion (ratio to baseline), FU − BL: −1.26 ± 4.89
  AUC2max_oc: Area under the curve to Max-Occlusion/Control, FU − BL: 3.03 ± 2.49
  AUCall_o: Area under the curve all-Occlusion (ratio to baseline), FU − BL: 1.66 ± 5.96
  AUCall_oc: Area under the curve all-Occlusion/Control, FU − BL: 1.88 ± 3.25
  Avg2Max_o: average upto max-Occlusion (ratio to baseline), FU − BL: 0.10 ± 0.69
  Avg2Max_oc: average up to max-Occlusion/Control, FU − BL: 0.17 ± 0.43
  Avgall_o: average all-Occlusion (ratio to baseline), FU − BL: 0.14 ± 0.67
  Avgall_oc: average all -Occlusion/Control, FU − BL: 0.16 ± 0.36
  Framingham RHI, FU − BL: 0.04 ± 0.36
  Reactive Hyperemia Index, FU − BL: 0.12 ± 0.34
87.5 mg twice daily
  Natural Log of Reactive Hyperemia Index, Difference, FU − BL: −0.03 ± 0.20
  Natural Log of Reactive Hyperemia Index, Baseline measurement: 0.49 ± 0.12
  Natural Log of Reactive Hyperemia Index, Follow-up measurement: 0.40 ± 0.29
87.5 mg twice daily, N 4
  AUC2max_o: Area under the curve to Max-Occlusion (ratio to baseline), FU − BL: −0.51 ± 1.64
  AUC2max_oc: Area under the curve to Max-Occlusion/Control, FU − BL: 0.16 ± 1.08
  AUCall_o: Area under the curve all-Occlusion (ratio to baseline), FU − BL: 0.60 ± 2.95
  AUCall_oc: Area under the curve all-Occlusion/Control, FU − BL: 0.17 ± 4.30
  Avg2Max_o: average upto max-Occlusion (ratio to baseline), FU − BL: 0.03 ± 0.36
  Avg2Max_oc: average up to max-Occlusion/Control, FU − BL: 0.24 ± 0.23
  Avgall_o: average all-Occlusion (ratio to baseline), FU − BL: 0.09 ± 0.33
  Avgall_oc: average all -Occlusion/Control, FU − BL: 0.05 ± 0.45
  Framingham RHI, FU − BL: 0.00 ± 0.20
  Reactive Hyperemia Index, FU − BL: 0.01 ± 0.38
125 mg daily
  Natural Log of Reactive Hyperemia Index, Difference, FU − BL: −0.10 ± 0.38
  Natural Log of Reactive Hyperemia Index, Baseline measurement: 0.63 ± 0.37
  Natural Log of Reactive Hyperemia Index, Follow-up measurement: 0.52 ± 0.34
125 mg daily, N 6
  AUC2max_o: Area under the curve to Max-Occlusion (ratio to baseline), FU − BL: 0.37 ± 2.71
  AUC2max_oc: Area under the curve to Max-Occlusion/Control, FU − BL: 1.80 ± 1.18
  AUCall_o: Area under the curve all-Occlusion (ratio to baseline), FU − BL: −0.28 ± 3.98
  AUCall_oc: Area under the curve all-Occlusion/Control, FU − BL: −1.84 ± 7.21
  Avg2Max_o: average upto max-Occlusion (ratio to baseline), FU − BL: 0.07 ± 0.86
  Avg2Max_oc: average up to max-Occlusion/Control, FU − BL: −0.32 ± 1.28
  Avgall_o: average all-Occlusion (ratio to baseline), FU − BL: −0.03 ± 0.49
  Avgall_oc: average all -Occlusion/Control, FU − BL: −0.20 ± 0.84
  Framingham RHI, FU − BL: −0.13 ± 0.51
  Reactive Hyperemia Index, FU − BL: −0.21 ± 0.78
All subjects (treatment arms)
  Natural Log of Reactive Hyperemia Index, Difference, FU − BL: −0.02 ± 0.30
  Natural Log of Reactive Hyperemia Index, Baseline measurement: 0.52 ± 0.28
  Natural Log of Reactive Hyperemia Index, Follow-up measurement: 0.49 ± 0.28
All subjects, N 27
  AUC2max_o: Area under the curve to Max-Occlusion (ratio to baseline), FU − BL: −0.26 ± 2.75
  AUC2max_oc: Area under the curve to Max-Occlusion/Control, FU − BL: 0.51 ± 2.91
  AUCall_o: Area under the curve all-Occlusion (ratio to baseline), FU − BL: 0.18 ± 3.54
  AUCall_oc: Area under the curve all-Occlusion/Control, FU − BL: −0.60 ± 4.93
  Avg2Max_o: average upto max-Occlusion (ratio to baseline), FU − BL: 0.04 ± 0.51
  Avg2Max_oc: average up to max-Occlusion/Control, FU − BL: −0.16 ± 0.79
  Avgall_o: average all-Occlusion (ratio to baseline), FU − BL: 0.02 ± 0.40
  Avgall_oc: average all -Occlusion/Control, FU − BL: −0.06 ± 0.54
  Framingham RHI, FU − BL: −0.06 ± 0.39
  Reactive Hyperemia Index, FU − BL: −0.04 ± 0.56
Some patients, baseline to day 5
  Improvement in natural log of Reactive Hyperemia Index: ≤ 9.75%
